Read-outs that look alike come from different tables or passages of the source.
Tests used:
[1] = target: T1, recombinant human Lp-PLA2 (Homo sapiens, UniProt Q13093); assay: Recombinant human Lp-PLA2 assay (rhLp-PLA2, PED6 assay); format: biochemical
T1 sequence (Q13093 22-441): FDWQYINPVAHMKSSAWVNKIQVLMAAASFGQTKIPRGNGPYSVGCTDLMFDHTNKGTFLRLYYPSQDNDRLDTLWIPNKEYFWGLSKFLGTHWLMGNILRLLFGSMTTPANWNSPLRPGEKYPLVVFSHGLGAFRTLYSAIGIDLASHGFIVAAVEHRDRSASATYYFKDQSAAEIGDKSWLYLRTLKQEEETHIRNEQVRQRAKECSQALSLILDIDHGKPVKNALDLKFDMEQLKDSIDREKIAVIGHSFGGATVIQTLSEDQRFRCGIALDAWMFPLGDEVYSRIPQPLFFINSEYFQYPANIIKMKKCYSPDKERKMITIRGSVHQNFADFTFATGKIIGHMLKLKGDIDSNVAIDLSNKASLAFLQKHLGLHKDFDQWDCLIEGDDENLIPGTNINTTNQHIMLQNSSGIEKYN
How it was run: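 Compounds were preincubated 30 min with 4 nM […] rhLp-PLA2 in 50 mM HEPES pH 7.4, 150 mM NaCl, 1 mM CHAPS, then PED6 substrate […] was added for 20 min at room temperature in the dark. Fluorescence was read at ex 480/em 540, and pIC50 was fitted from 1:3 serial dilutions.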

[2] = target: T2, Lp-PLA2 in human plasma (Homo sapiens, UniProt Q13093); assay: Lp-PLA2 human plasma assay (Thio-PAF assay); format: biochemical; details: pooled human plasma; lower bounds; read-out: pIC50 values in the thio-PAF assay (converted)
T2 construct: from tissue; host or cells: pooled human plasma
T2 sequence (Q13093 22-441): T1 sequence (Q13093 22-441)
How it was run: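 Pooled human plasma preincubated 30 min with compounds, then given 2-thio-PAF substrate with CPM and NEM in 50 mM HEPES pH 7.4, 150 mM NaCl, 1 mM CHAPS. Reaction quenched after 2 min with TFA and read by fluorescence (ex 380/em 485) after 40 min at room temperature; pIC50 from curve fit.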

[3] = lower bounds, read-out: pIC50 values in the PED6 assay (converted)
[4] = read-out: rhLp-PLA2 (PED6 assay) (pIC50) (converted)

Row | Compound | IC50 [1, 3] | IC50 [1, 4] | IC50 [2]
1 | CN1c2cc(OCc3ccc(Oc4ccnc(C(F)(F)F)c4)c(F)c3)nc(=O)n2CC1(C)C [Example E59, 7-((3-fluoro-4-((2-(trifluoromethyl)pyridin-4-yl)oxy)benzyl)oxy)-1,2,2-trimethyl-2,3-dihydroimidazo[1,2-c]pyrimidin-5(1H)-one] | ≤ 1 nM | 0.0398 nM | ≤ 100 nM
2 | CN1c2cc(OCc3cc(F)c(Oc4ccc(C(F)(F)F)nc4)c(F)c3)nc(=O)n2CC1(C)C [Example E60, 7-((3,5-difluoro-4-((6-(trifluoromethyl)pyridin-3-yl)oxy)benzyl)oxy)-1,2,2-trimethyl-2,3-dihydroimidazo[1,2-c]pyrimidin-5(1H)-one] | ≤ 1 nM | 0.0398 nM | ≤ 100 nM
3 | CN1c2cc(OCc3cc(F)c(Oc4cncc(C(F)(F)F)c4)c(F)c3)nc(=O)n2CC1(C)C [Example E61, 7-((3,5-difluoro-4-((5-(trifluoromethyl)pyridin-3-yl)oxy)benzyl)oxy)-1,2,2-trimethyl-2,3-dihydroimidazo[1,2-c]pyrimidin-5(1H)-one] | ≤ 1 nM | 0.126 nM | ≤ 100 nM
4 | CN1c2cc(OCc3ccc(Oc4cncc(Cl)c4)c(F)c3)nc(=O)n2CC1(C)C [Example E63, 7-((4-((5-chloropyridin-3-yl)oxy)-3-fluorobenzyl)oxy)-1,2,2-trimethyl-2,3-dihydroimidazo[1,2-c]pyrimidin-5(1H)-one] | ≤ 1 nM | 0.1 nM | ≤ 100 nM
5 | CN1c2cc(OCc3cc(F)c(Oc4ccc(F)nc4)c(F)c3)nc(=O)n2CC1(C)C [Example E64, 7-((3,5-difluoro-4-((6-fluoropyridin-3-yl)oxy)benzyl)oxy)-1,2,2-trimethyl-2,3-dihydroimidazo[1,2-c]pyrimidin-5(1H)-one] | ≤ 1 nM | 0.0794 nM | ≤ 100 nM
6 | CN1c2cc(OCc3ccc(Oc4ccnc(Cl)c4)c(F)c3)nc(=O)n2CC1(C)C [Example E65, 7-((4-((2-chloropyridin-4-yl)oxy)-3-fluorobenzyl)oxy)-1,2,2-trimethyl-2,3-dihydroimidazo[1,2-c]pyrimidin-5(1H)-one] | ≤ 1 nM |  | ≤ 100 nM
7 | CCN1c2cc(OCc3cccc(F)c3F)nc(=O)n2CC1(C)C [Example E66, 7-((2,3-difluorobenzyl)oxy)-1-ethyl-2,2-dimethyl-2,3-dihydroimidazo[1,2-c]pyrimidin-5(1H)-one] | ≤ 10 nM |  | ≤ 100 nM
8 | [2H]C([2H])(Oc1cc2n(c(=O)n1)CC(C)(C)N2C)c1cccc(F)c1F [Example E67, 7-(dideutero(2,3-difluorobenzyl)oxy)-1,2,2-trimethyl-2,3-dihydroimidazo[1,2-c]pyrimidin-5(1H)-one] | ≤ 10 nM |  | ≤ 100 nM
9 | CC1(C)Cn2c(cc(OCc3ccc(Oc4ccnc(F)c4)c(F)c3)nc2=O)N1 [Example E68, 7-((3-fluoro-4-((2-fluoropyridin-4-yl)oxy)benzyl)oxy)-2,2-dimethyl-2,3-dihydroimidazo[1,2-c]pyrimidin-5(1H)-one] | ≤ 1 nM |  | ≤ 100 nM
10 | CC1(C)Cn2c(cc(OCc3ccc(Oc4ccc(F)nc4)c(F)c3)nc2=O)N1 [Example E69, 7-((3-fluoro-4-((6-fluoropyridin-3-yl)oxy)benzyl)oxy)-2,2-dimethyl-2,3-dihydroimidazo[1,2-c]pyrimidin-5(1H)-one] | ≤ 1 nM |  | ≤ 100 nM
11 | CC1Cn2c(cc(OCc3ccc(Oc4cccc(C(F)(F)F)c4)c(C#N)c3)nc2=O)N1C (centres unmarked) [Example E71, 5-(((1,2-dimethyl-5-oxo-1,2,3,5-tetrahydroimidazo[1,2-c]pyrimidin-7-yl)oxy)methyl)-2-(3-(trifluoromethyl)phenoxy)benzonitrile] | ≤ 1 nM |  | ≤ 100 nM
12 | C[C@H]1Cn2c(cc(OCc3cc(F)c(Oc4ccc(C(F)(F)F)nc4)c(F)c3)nc2=O)N1C [Example E73, (S)-7-((3,5-difluoro-4-((6-(trifluoromethyl)pyridin-3-yl)oxy)benzyl)oxy)-1,2-dimethyl-1-2,3-dihydroimidazo[1,2-c]pyrimidin-5(1H)-one] | ≤ 1 nM |  | ≤ 100 nM
